According to patent US10258606B2, “Endothelin single nucleotide polymorphisms and methods of predicting β-adrenergic receptor targeting agent efficacy” (The Regents of the University of Colorado, A Body Corporate, priority 2007, dated 2019):

Key:
[1] = system: subjects with idiopathic dilated cardiomyopathy; experiment: BEST (Beta-Blocker Evaluation of Survival Trial) DNA substudy: time to event by endothelin gene system genotype, Cox proportional hazards model; assay type: in vivo, human; settings: for Event/number, first heart failure hospitalization or death: FIG. 1; for E, number of events / HR associated with each copy of allele A, allele dosage Cox model / HR associated with each copy of allele Asn, allele dosage Cox model: bucindolol arm; for HR associated with each copy of allele A, allele dosage Cox model: G/A (IVS-4); for HR associated with each copy of allele Asn, allele dosage Cox model: Lys198Asn
Source text: 309 subjects with idiopathic dilated cardiomyopathy were studied from the Beta-Blocker Evaluation of Survival Trial (BEST) (2001). BEST was a multicenter, randomized, prospective trial of patients with NYHA class III or IV heart failure and an ejection fraction <35% comparing mortality in adults treated with placebo or the non-selective β-blocker bucindolol. The BEST DNA bank, initiated in the study's second year, collected samples from 38% of the original participants. The inventors requested samples from idiopathic dilated cases, rather than the entire cohort, to ensure a more homogenous heart failure population. In particular, the inventors sought to avoid studying […] ischemic forms of heart failure where acquired macrovascular changes in arterial stiffness or tone could potentially mask or override inherent microvascular phenotypes mediated by variation in endothelin genes. Written informed consent was obtained from each participant and all DNA was coded to maintain confidentiality. The genotyping project was approved by the BEST DNA Bank Oversight Committee and by the Colorado Multiple Institutional Review Board
Time to each of two endpoints was examined: all cause death and a combined endpoint comprised of first heart failure hospitalization or all cause death, using the Cox proportional hazards model. Genotype was treated a priori as a continuous variable, consistent with an allele dosage effect. Analyses were conducted using R and SAS. Primary analyses consisted of separate tests of a main genotype effect on time to event for each SNP within each treatment arm: placebo (N=159) and bucindolol (N=150). Secondary analyses, in the combined sample (N=309), consisted of tests of a genotype-treatment pharmacogenetic interaction and of a main genotype effect independent of treatment arm. Secondary analyses, comprised of interaction tests and estimation of within-genotype bucindolol:placebo hazard ratios, were also performed. Ethnicity was not included as a factor in initial Cox models, because of the relatively small sample. However, post-hoc analyses (within ethnic group, and including ethnicity-genotype interactions) were used to explore whether initial results were due to unaccounted for ethnic stratification. Linkage disequilibrium was assessed by taking the R^2 value (squared correlation) of the genotypes (coded as 0, 1 or 2) between two SNPs.
To account for the large number of simultaneous tests, adjusted p-values obtained from a multiple-testing permutation procedure are reported (Westfall and Young, 1993). Based on the actual data set, 5000 random data sets were generated by randomly permuting the time to event data relative to the genotype data, separately for patients on placebo and for patients on bucindolol. […] Adjusted p-values for interaction tests are based on 18 tests (2 outcomes×9 SNPs).
Cox model analysis was also used to examine a variety of more complicated models, and to describe the quantify the effects of bucindolol in terms of bucindolol:placebo hazard ratios, within genotype. Kaplan-Meier plots and log-rank tests were also examined. All p-values were based on two-sided tests. The statistical analysis was performed at the Veterans Affairs Cooperative Studies Program DNA Bank Coordinating Center.

[2] = system: 1040 BEST DNA Bank subjects; settings: bucindolol treated subjects carrying the Arg-389 allele of the beta-1-adrenergic receptor (ADRB); cited from earlier work
[3] = combined endpoint, Non-Hispanic Blacks
[4] = combined endpoint, Non-Hispanic Whites

With `CC(C)(Cc1c[nH]c2ccccc12)NCC(O)COc1ccccc1C#N` (centres unmarked) [Bucindolol, bucindolol] the “Event/number, first heart failure hospitalization or death” value ([1]; IVS-4 G/A common homozygotes) was 21/84, the “Event/number, first heart failure hospitalization or death” value ([1]; IVS-4 G/A heterozygotes) was 21/58 and the “Event/number, first heart failure hospitalization or death” value ([1]; IVS-4 G/A rare homozygotes) was 7/8. For the same compound, the “Event/number, first heart failure hospitalization or death” value ([1]; Lys198Asn common homozygotes) was 22/87, the “Event/number, first heart failure hospitalization or death” value ([1]; Lys198Asn heterozygotes) was 20/55 and the “Event/number, first heart failure hospitalization or death” value ([1]; Lys198Asn rare homozygotes) was 7/8. The “E, number of events” value ([1]; combined endpoint, G/A (IVS-4) analysis, All (N 150)) was 49, the “E, number of events” value ([1]; combined endpoint, G/A (IVS-4) analysis, Non-Hispanic Blacks (N 38)) was 16 and the “E, number of events” value ([1]; combined endpoint, G/A (IVS-4) analysis, Non-Hispanic Whites (N 100)) was 27. The “HR associated with each copy of allele A, allele dosage Cox model” value ([1]; combined endpoint, All) was 2.2, the “HR associated with each copy of allele A, allele dosage Cox model” value [1, 3] was 1.58 and the “HR associated with each copy of allele A, allele dosage Cox model” value [1, 4] was 1.9. The “E, number of events” value ([1]; combined endpoint, Lys198Asn analysis, All (N 150)) was 49, the “E, number of events” value ([1]; combined endpoint, Lys198Asn analysis, Non-Hispanic Blacks (N 38)) was 16 and the “E, number of events” value ([1]; combined endpoint, Lys198Asn analysis, Non-Hispanic Whites (N 100)) was 27. The “HR associated with each copy of allele Asn, allele dosage Cox model” value ([1]; combined endpoint, All) was 2.0, the “HR associated with each copy of allele Asn, allele dosage Cox model” value [1, 3] was 1.5 and the “HR associated with each copy of allele Asn, allele dosage Cox model” value [1, 4] was 1.9. For the same compound, the “Hazard ratio for bucindolol versus placebo” value (“Hazard ratio” below) ([1]; combined endpoint (first heart failure hospitalization or all cause mortality), EDN1 G/A (IVS-4) genotype GG) was 0.5, the “Hazard ratio” value ([1]; combined endpoint, EDN1 G/A (IVS-4) genotype AA) was 3.2 and the “Hazard ratio” value ([1]; combined endpoint, EDN1 G/A (IVS-4) genotype GA) was 1.1. The “Hazard ratio” value ([1]; combined endpoint, EDN1 Lys198Asn genotype Asn/Asn) was 2.5, the “Hazard ratio” value ([1]; combined endpoint, EDN1 Lys198Asn genotype Lys/Asn) was 1.1 and the “Hazard ratio” value ([1]; combined endpoint, EDN1 Lys198Asn genotype Lys/Lys) was 0.5. The “apparent effect of bucindolol on combined endpoint” value (shortened to “apparent effect of bucindolol”) ([1]; common homozygotes (statistically significant)) was “beneficial effect”, the “apparent effect of bucindolol” value ([1]; heterozygotes) was “neutral effect” and the “apparent effect of bucindolol” value ([1]; rare homozygotes) was “harmful effect”. For the same compound, the “combined endpoint hazard rate on bucindolol relative to placebo” value ([1]; the 5.5% of subjects homozygous for the rare complementary haplotype) was “almost three times greater” and the all-cause mortality [2] was “reduced all-cause mortality”.
